Assay [1] addresses T1, TYK2-JH2 (aa 575-869, in-house) protein (Homo sapiens, UniProt P29597).
T1 construct: TYK2-JH2 (aa 575-869, in-house) protein; made in house
As to the kind of experiment: TYK2-JH2 biochemical assay (HTRF, blocking of TYK2-JH2 protein with its probe). The format is binding. The note with it: for IC50: HTRF, 0.2 nM recombinant TYK2-JH2, Probe 1; for Biochemical assay Selectivity fold (TYK2/JAK1): TYK2-JH2 vs JAK1-JH2 biochemical IC50. As for the experimental part: Assay A: TYK2-JH2 Biochemical Assay
Compounds disclosed herein were tested for blocking of TYK2-JH2 (aa 575-869, in-house) protein with its probe in an assay based on Homogeneous Time Resolved Fluorescence.
Compound dilution is done according to the following protocol: (1) Prepare 500× compounds solution in DMSO from 500 uM by 5-fold dilution, total 10 doses were included; (2) Prepare 10× compounds solution in an assay buffer containing 20 mM HEPES, pH 7.5, 10 mM MgCl2, 0.005% BSA, 2 mM DTT, 0.015% Brij-35 by transferring 1 μl serial 500× stock solution into 49 μl assay buffer. 4 μl of 0.2 nM recombinant TYK2-JH2 protein was pre-incubated with 1 μl of 10×serial dilution of compounds at room temperature for 0.5 hour. Then 5 μl of 10 nM in-house Probe 1 (6-((3,5-dimethylphenyl)amino)-8-((4,26-dioxo-30-((3aS,4S,6aR)-2-oxohexahydro-1H-thieno[3,4-d]imidazol-4-yl)-7,10,13,16,19,22-hexaoxa-3,25-diazatriacontyl)amino)imidazo[1,2-b]pyridazine-3-carboxamide, KD=10 nM), 5 μl Mab Anti-6His Tb cryptate Gold (Cat: 61HI2TLB, Cisbio Bioassays) and Streptavidin-XL665(Cat: 610SAXLB, Cisobio Bioassays) mixture were added to plate and further incubated at room temperature for 1 hour. The HTRF signals (ex337 nm, em620 nm/665 nm) were read on BMG PHERAstar FS instrument. The inhibition percentage of TYK2 interaction with its probe in presence of increasing concentrations of compounds was calculated based on the ratio of fluorescence at […]. The IC50 for each compound was derived from fitting the data to the four-parameter logistic equation by Dotmatics.
A general note: Time-resolved FRET reads energy transfer from a long-lived donor to a nearby acceptor.

In assay [2] the target is T2, JAK1-JH2 protein (aa 561-860, in-house) (Homo sapiens, UniProt P23458).
T2 construct: JAK1-JH2 protein (aa 561-860, in-house); made in house
Nature of the assay: JAK1-JH2 biochemical assay (HTRF, blocking of JAK1-JH2 protein with its probe). The format is binding. Conditions: 1.17 nM recombinant JAK1-JH2, Probe 2. As to the method:
Assay B: JAK1-JH2 Biochemical Assay
Compounds disclosed herein were tested for blocking of JAK1-JH2 protein (aa 561-860, in-house) with its probe in an assay based on Homogeneous Time Resolved Fluorescence. Compound dilution is done according to the following protocol: (1) Prepare 500× compounds solution in DMSO from 500 uM by 5-fold dilution, total 10 doses were included; (2) Prepare 10× compounds solution in an assay buffer containing 20 mM HEPES, pH 7.5, 10 mM MgCl2, 0.005% BSA, 2 mM DTT, 0.015% Brij-35 by transferring 1 μl serial 500× stock solution into 49 μl assay buffer. 4 μL of 1.17 nM recombinant JAK1-JH2 protein was pre-incubated with 1 μl of 10×serial dilution of compounds at room temperature for 0.5 hour. […] The HTRF signals (ex337 nm, em620 nm/665 nm) were read on BMG PHERAstar FS instrument. The inhibition percentage of JAK1 interaction with its probe in presence of increasing concentrations of compounds was calculated based on the ratio of fluorescence at 615 nm to that at 665 nm. The IC50 for each compound was derived from fitting the data to the four-parameter logistic equation by Dotmatics.

Assay [3] concerns JAK2, TYK2/p-STAT4 (Tyr693) activated by IL-12 in NK-92 cell line. Nature of the assay: IL-12-JAK2, TYK2/p-STAT4 (Tyr693) inhibition cellular assay. The note with it: for IC50: NK92, 0.5 h, NK-92 cells, IL-12 40 ng/ml, 30 min, read-out: Cellular assay pSTAT4/IL-12 IC50; for Cellular assay Selectivity fold (TYK2/JAK1): pSTAT4/IL-12 vs pSTAT3/IL-6 cellular IC50. In kind it is cell-based. The source says:
Assay C: IL-12-JAK2, TYK2/p-STAT4 (Tyr693) Inhibition IC50 Cellular Assay
To evaluate the inhibition effect of compounds disclosed herein on JAK2, TYK2/p-STAT4 (Tyr693) activated by IL-12 in NK-92 cell line, NK-92 cells were collected and washed 3 times by DPBS and resuspended in MEM-α(GIBCO,Cat #12561056) with 10% FBS (Gibco, Cat #10099, Lot #1891605), without IL-2 (R&D systems,Cat #202-IL), starved overnight. Cells were collected and resuspended in 1640 medium (phenol red free, Gibco, Cat #11835-030) with 0.1% BSA, and 12.5 μl/5×10^4/well cell suspension were seeded to the 96-well plate (Corning, Cat #3799). Then cells were treated with compounds diluted in 0.2% DMSO 1640 medium, at 37° C., 1 h. Dilution is done according to the following protocol: (1) make 500× compounds solution in DMSO from 5 mM by 4-fold dilution, total 8 doses were included; (3) make 2× compounds solution in assay medium by transferring 0.5 μl serial 500× stock solution into 125 μl assay medium; (4) 15 μl of 2× serial solution is added to cells and incubate at 37° C. for 1 h, the final compound conc. is 10000,2500,625,156.25,39,9.8,2.4 and 0.61 nM, respectively. After 1 h, cells were treated with 2.5 μl medium containing IL-12 at 37° C. (R&D systems, Cat #219-IL-005, final conc.40 ng/ml), 30 min. Following cells were lysed with 7.5 μl lysis buffer at RT, shaking on shaker for 1 h. 10 μL of cell lysate were transferred to a PE 384-well Proxiplate detection plate, and 5 μL of pre-mixed Alphascreen beads were added to each well. Covered the plate with a plate sealer, span 1000 rpm for 1 min, mix, Incubated overnight at room temperature. Read on BMG PheraStar with Alphascreen protocol. IC 50 values were calculated by fitting dependent data to the four-parameter logistic model using dotmatics software. The assay was performed by using AlphaLISA SureFire Ultra p-STAT4 (Tyr693) Assay Kit—High Volume (PE, Cat #ALSU-PST4-A-HV).

Assay [4] concerns JAK1/p-STAT3(Tyr705) activated by IL-6 in TF-1 cell line. Nature of the assay: IL-6-JAK1/p-STAT3(Tyr705) inhibition cellular assay. In kind it is cell-based. Conditions: Homo sapiens, 0.5 h; TF-1 cells, IL-6 50 ng/ml, 30 min; read-out: Cellular assay pSTAT3/IL-6 IC50. An excerpt: Assay D: IL-6-JAK1/p-STAT3(Tyr705) Inhibition IC50 Cellular Assay
To evaluate the inhibition effect of compounds disclosed herein on JAK1/p-STAT3(Tyr705) activated by IL-6 in TF-1 cell line, TF-1 cells were collected and washed 3 times by DPBS and resuspended in RPMI-1640 (phenol red free, Gibco, Cat #11835-030) with 0.1% FBS (Gibco, Cat #10099, Lot #1891605), without GM-CSF(R&D systems,Cat #215-GM-050), starved overnight. Cells were collected and resuspended in 1640 medium (phenol red free, Gibco, Cat #11835-030) with 0.1% BSA, and 12.5 μl/10×10^4/well cell suspension were seeded to the 96-well plate (Corning, Cat #3799). Then cells were treated with compounds diluted in 0.2% DMSO 1640 medium, at 37° C., 1 h. Dilution is done according to the following protocol: (1) make 500× compounds solution in DMSO from 5 mM by 4-fold dilution, total 8 doses were included; (3) make 2× compounds solution in assay medium by transferring 0.5 μl serial 500× stock solution into 125 μl assay medium; (4) 15 μl of 2× solution is added to cells and incubate at 37° C. for 1 h, the final compound conc. is 10000,2500,625,156.25,39,9.8,2.4 and 0.61 nM, respectively. After 1 h, cells were treated with 2.5 μl medium containing IL-6 at 37° C. (R&D systems, Cat #206-IL-010, final conc.50 ng/ml), 30 min. Following cells were lysed with 10 μl lysis buffer at RT, shaking on shaker for 1 h. 16 μL of cell lysate were transferred to a PE 384-well HTRF detection plate, and 4 μL of pre-mixed HTRF antibodies were added to each well. Covered the plate with a plate sealer, span 1000 rpm for 1 min, mix, Incubated overnight at room temperature. Read on BMG PheraStar with HTRF protocol (337 nm-665 nm-620 nm). IC 50 values were calculated by fitting dependent data to the four-parameter logistic model using dotmatics software. The assay was performed by using HTRF Phospho-STAT3(Tyr705) Cellular Assay Kit (Cisbio, Cat #62AT3PEG).

Six compounds from patent publication US12606556B2, “TYK-2 inhibitor” (BEIGENE, LTD., priority 2020, dated 2026) can be followed below.

T1 sequence (P29597 575-869): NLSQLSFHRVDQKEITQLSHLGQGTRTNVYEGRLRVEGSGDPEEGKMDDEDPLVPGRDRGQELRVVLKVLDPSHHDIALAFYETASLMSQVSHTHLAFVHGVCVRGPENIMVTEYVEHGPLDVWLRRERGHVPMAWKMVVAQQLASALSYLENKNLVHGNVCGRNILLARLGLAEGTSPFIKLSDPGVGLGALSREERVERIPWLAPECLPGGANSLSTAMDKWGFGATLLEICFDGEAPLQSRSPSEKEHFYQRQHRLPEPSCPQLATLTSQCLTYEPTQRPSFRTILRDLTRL
T2 sequence (P23458 561-860): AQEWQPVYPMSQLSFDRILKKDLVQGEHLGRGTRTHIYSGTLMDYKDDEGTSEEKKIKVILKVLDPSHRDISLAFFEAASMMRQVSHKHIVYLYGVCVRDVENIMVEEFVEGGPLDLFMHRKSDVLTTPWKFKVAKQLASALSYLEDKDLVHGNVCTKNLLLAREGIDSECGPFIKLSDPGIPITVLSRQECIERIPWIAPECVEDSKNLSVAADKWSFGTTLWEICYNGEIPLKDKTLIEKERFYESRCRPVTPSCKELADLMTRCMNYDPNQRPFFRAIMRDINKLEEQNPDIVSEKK

Take `CNC(=O)c1nnc(NC(=O)C2CC2)cc1Nc1nc2ccc(OC3CN(S(C)(=O)=O)C3)cn2n1` [Example C3, 6-(cyclopropanecarboxamido)-N-methyl-4-((6-((1-(methylsulfonyl)azetidin-3-yl)oxy)-[1,2,4]triazolo[1,5-a]pyridin-2-yl)amino)pyridazine-3-carboxamide]: the IC50 is 0.08 nM in assay [1], 1.2 nM in assay [2], 68.8 nM in assay [3] and over 10 µM in assay [4]. Further, in assay [1], the “Biochemical assay Selectivity fold (TYK2/JAK1)” value is 15 fold. Also, in assay [3], the “Cellular assay Selectivity fold (TYK2/JAK1)” value was over 145 fold.

`CNC(=O)c1nnc(NC(=O)C2CC2)cc1Nc1nc2ccc(OC3CN(C(C)=O)C3)cn2n1` [Example C4, 4-((6-((1-acetylazetidin-3-yl)oxy)-[1,2,4]triazolo [1,5-a]pyridin-2-yl)amino)-6-(cyclopro-panecarbox-amido)-N-methyl-pyridazine-3-carboxamide]: the IC50 is 0.08 nM in assay [1], 1.2 nM in assay [2], 309 nM in assay [3] and over 10 µM in assay [4]. Also, the “Biochemical assay Selectivity fold (TYK2/JAK1)” value in assay [1] was 15 fold. For the same compound, the “Cellular assay Selectivity fold (TYK2/JAK1)” value in assay [3] is reported as over 32 fold.

With `CNC(=O)c1nnc(NC(=O)C2CC2)cc1Nc1nc2ccc(OC3CN(C(=O)CC#N)C3)cn2n1` [Example C5, 4-((6-((1-(2-cyanoacetyl)azetidin-3-yl)oxy)-[1,2,4]triazolo[1,5-a]pyridin-2-yl)amino)-6-(cyclopro-panecarbox-amido)-N-methyl-pyridazine-3-carboxamide], the IC50 in assay [1] was 0.143 nM; in assay [2], 1.56 nM; in assay [3], 1320 nM; in assay [4] it was over 10 µM. Besides, in assay [1], the “Biochemical assay Selectivity fold (TYK2/JAK1)” value stood at 11 fold. Moreover, in assay [3], the “Cellular assay Selectivity fold (TYK2/JAK1)” value is over 8 fold.

In the case of `CNC(=O)c1nnc(NC(=O)C2CC2)cc1Nc1nc2ccc(OC3CN(C4CCOC4)C3)cn2n1` (stereo not drawn) [Example D1, 6-(cyclopropanecarboxamido)-N-methyl-4-((6-((1-(tetrahydrofuran-3-yl)azetidin-3-yl)oxy)-[1,2,4]triazolo[1,5-a]pyridin-2-yl)amino)pyridazine-3-carboxamide], the IC50 in assay [1] is 0.099 nM; in assay [2], 1.21 nM; in assay [3], 68.4 nM; in assay [4], over 10 µM. For the same compound, the “Biochemical assay Selectivity fold (TYK2/JAK1)” value in assay [1] was determined as 12 fold. The “Cellular assay Selectivity fold (TYK2/JAK1)” value in assay [3] is listed as over 146 fold.

Turning to `CNC(=O)c1nnc(NC(=O)C2CC2)cc1Nc1nc2ccc(N3CCC3)cn2n1` [Example E1, 4-((6-(azetidin-1-yl)-[1,2,4]triazolo[1,5-a]pyridin-2-yl)amino)-6-(cyclopropanecarboxamido)-N-methylpyridazine-3-carboxamide], the IC50 in assay [1] was determined as 0.047 nM; in assay [2] it was 1.6 nM; in assay [3], 13.3 nM; in assay [4], 6.33 µM. In addition, the “Biochemical assay Selectivity fold (TYK2/JAK1)” value in assay [1] came to 34 fold. In assay [3], the “Cellular assay Selectivity fold (TYK2/JAK1)” value was 475 fold.

For `CNC(=O)c1nnc(NC(=O)C2CC2)cc1Nc1nc2ccc(N3CC(OC)C3)cn2n1` [Example E2, 6-(cyclopropanecarboxamido)-4-((6-(3-methoxyazetidin-1-yl)-[1,2,4]triazolo[1,5-a]pyridin-2-yl)amino)-N-methylpyridazine-3-carboxamide], the IC50 was determined as 0.047 nM in assay [1], 1.2 nM in assay [2], 9.01 nM in assay [3] and 9.8 µM in assay [4]. Moreover, the “Biochemical assay Selectivity fold (TYK2/JAK1)” value in assay [1] worked out at 26 fold. Further, the “Cellular assay Selectivity fold (TYK2/JAK1)” value in assay [3] was determined as 1087 fold.
